According to patent US20240368168A1, “SARM1 ENZYME ACTIVITY INHIBITOR AND APPLICATION THEREOF” (ARTIVILA BIOPHARMA, priority 2021, published 2024):

Assays:
dN-SARM1 protein [1] = target: T1, dN-SARM1 protein (Homo sapiens, UniProt Q6SZW1); assay: In vitro biochemical assay for inhibiting SARM1 enzymatic activity (IC50), PC6 fluorescence method; details: 50 μM NAD, 50 μM PC6, 50 μM NMN activator
T1 construct: the N-terminal mitochondrial localization signal peptide of SARM1 was removed
T1 sequence (Q6SZW1 28-724): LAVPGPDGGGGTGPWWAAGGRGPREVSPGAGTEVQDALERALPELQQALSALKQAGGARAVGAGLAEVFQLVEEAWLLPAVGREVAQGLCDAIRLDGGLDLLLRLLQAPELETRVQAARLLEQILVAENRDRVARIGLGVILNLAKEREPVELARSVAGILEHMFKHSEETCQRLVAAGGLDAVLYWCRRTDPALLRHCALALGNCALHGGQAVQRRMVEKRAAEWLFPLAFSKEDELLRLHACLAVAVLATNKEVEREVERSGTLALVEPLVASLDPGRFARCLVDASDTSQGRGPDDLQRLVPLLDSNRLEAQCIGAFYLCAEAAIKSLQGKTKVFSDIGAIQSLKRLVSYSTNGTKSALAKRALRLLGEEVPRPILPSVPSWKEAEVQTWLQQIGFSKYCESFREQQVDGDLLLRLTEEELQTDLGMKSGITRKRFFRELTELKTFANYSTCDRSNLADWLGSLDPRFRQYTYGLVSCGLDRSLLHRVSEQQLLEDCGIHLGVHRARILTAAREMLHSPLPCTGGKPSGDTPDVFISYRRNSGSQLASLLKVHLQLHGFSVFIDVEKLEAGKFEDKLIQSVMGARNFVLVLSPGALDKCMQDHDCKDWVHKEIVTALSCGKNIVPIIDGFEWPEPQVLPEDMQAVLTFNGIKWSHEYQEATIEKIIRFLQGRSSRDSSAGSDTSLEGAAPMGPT
Outline: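 dN-SARM1 (0.05 μg/ml, 50 mM Tris-HCl pH 7.5) preincubated 10 min at room temperature with compound in serial dilution from 200 μM. Reaction started with final 50 μM NAD, 50 μM PC6 substrate and 50 μM NMN activator, 30 min at room temperature. PC6 fluorescence (ex 390/em 520 nm) rate gives activity; IC50 derived.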

[2] = target: T2, SARM1 protein in iSARM1 (HEK293) cells (Homo sapiens, UniProt Q6SZW1); assay: Inhibitory activity in inducible SARM1 overexpressing cell line, intracellular cADPR level; type: cell-based; details: activator CZ-48 100 μM, cADPR content
T2 construct: The full-length SARM1 was synthesized into the pUC57 plasmid by WZ Biosciences Inc., and PCR was performed using pUC57-SARM1 as a DNA template
T2 sequence (Q6SZW1 28-724): T1 sequence (Q6SZW1 28-724)
Outline: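 Inducible SARM1-overexpressing HEK293 cells preincubated 1.5 h with inhibitor (50 μM final), then activated with 100 μM CZ-48 for 16 h. Intracellular cADPR extracted with perchloric acid, NAD+ removed by NADase, and quantified by cyclase-coupled resazurin cycling assay (Ex/Em 544/599, 30 min kinetics) against cADPR standards; inhibition rate and IC50 calculated.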

dN-SARM1 protein [3] = target: T1, dN-SARM1 protein; assay: In vitro biochemical assay for inhibiting SARM1 enzymatic activity (% inhibition rate), PC6 fluorescence method; details: 20 μM compound; 50 μM NAD, 50 μM PC6, 50 μM NMN activator
Procedure: The compounds were subjected to PC6 fluorescence method measurement [Chinese Patent 202010528147.3] using the dN-SARM1 protein obtained through “(4) Protein extraction” in “Expression and purification of SARM1 protein” in the above biological activity example 1.
First, 0.05 μg/ml dN-SARM1 and 20 μM compound were incubated in 50 mM Tris-HCl (pH 7.5) solution for 10 min, and then added with 50 μM NAD and 50 μM PC6 as substrate and 50 μM NMN as activator for 30 minutes of reaction at room temperature. The concentration of each component was the final concentration in the reaction system.
During the reaction, PC6 fluorescence spectrum dynamics were detected by a microplate reader, wherein the excitation wavelength and emission wavelength for detection were 390 nm and 520 nm, respectively. Finally, the reaction rate was used to express the activity of the protein. The higher the reaction rate, the stronger the activity of the protein and the lower the inhibitory efficiency of the compound.

Row | Compound | IC50 (dN-SARM1 protein [1]) | EC50 [2] | inhibition at 20 µM (dN-SARM1 protein [3])
1 | CC(C)(C)OC(=O)Nc1ccc2ncc(-c3cccc(NC(=O)COCCOCC(=O)Nc4cccc(-c5cnc6ccc(NC(=O)OC(C)(C)C)cn56)c4)c3)n2c1 [Compound 122] | < 1000 nM | < 1000 nM | > 90%
2 | CC(C)(C)OC(=O)Nc1ccc2ncc(-c3cccc(NC(=O)COCCOCCOCC(=O)Nc4cccc(-c5cnc6ccc(NC(=O)OC(C)(C)C)cn56)c4)c3)n2c1 [Compound 123] | < 1000 nM | < 1000 nM | > 90%
3 | c1ccc(Nc2ccc3ncc(-c4ccccc4)n3c2)cc1 [Compound 75] | 1000 to 10000 nM | < 1000 nM | > 90%
4 | CC(C)(C)OC(=O)N(c1ccccc1)c1ccc2ncc(-c3ccccc3)n2c1 [Compound 90] | 1000 to 10000 nM | 1000 to 10000 nM | > 90%
5 | CN(C(=O)OC(C)(C)C)c1ccc2ncc(-c3ccc(N)cc3)n2c1 [Compound 40] | 1000 to 10000 nM | 1000 to 10000 nM | > 90%
6 | CNc1ccc2ncc(-c3cccc(NC(=O)COCCOCC(=O)Nc4cccc(-c5cnc6ccc(NC)cn56)c4)c3)n2c1 [Compound 78] | < 1000 nM | 1000 to 10000 nM | > 90%
7 | c1ccc(-c2cnc3ccc(N4CCOCC4)cn23)cc1 [Compound 34] | 1000 to 10000 nM | 1000 to 10000 nM | > 90%
8 | CNc1ccc2ncc(-c3cccc(NC(=O)COCCOCCOCC(=O)Nc4cccc(-c5cnc6ccc(NC)cn56)c4)c3)n2c1 [Compound 79] | < 1000 nM | 1000 to 10000 nM | > 90%
9 | CNc1ccc2ncc(C(=O)Nc3ccccc3)n2c1 [Compound 105, 6-(methylamino)-N-phenylimidazo[1,2-a]pyridin-3-carboxamide] | 1000 to 10000 nM | 1000 to 10000 nM | > 90%
10 | COCCOCC(=O)Nc1ccc(-c2cnc3ccc(N(C)C(=O)OC(C)(C)C)cn23)cc1 [Compound 50] | 1000 to 10000 nM | 1000 to 10000 nM | > 90%
11 | COCCOCC(=O)Nc1cccc(-c2cnc3ccc(NC(=O)C4CC4)cn23)c1 [Compound 129, N-(3-(3-(2-(2-methoxyethoxy)acetamido)phenyl)imidazo[1,2-a]pyridin-6-yl)cyclopropanecarboxamide] | < 1000 nM | 1000 to 10000 nM | > 90%
12 | CC(C)(C)OC(=O)Nc1ccc2ncc(I)n2c1 [Compound 44] | 1000 to 10000 nM | 1000 to 10000 nM | 50 to 89%
13 | CN(C(=O)OC(C)(C)C)c1ccc2ncc(-c3cccc(NC(=O)COCCOCCOCC(=O)Nc4cccc5c4CN(C4CCC(=O)NC4=O)C5=O)c3)n2c1 (centres unmarked) [Compound 115, tert-butyl (3-(3-(2-(2-(2-(2-((2-(2,6-dioxopiperidin-3-yl))-1-oxoisoindolin-4-yl)amino)-2-oxoethoxy)ethoxy)ethoxy)acetamido)phenyl)imidazo[1,2-a]pyridin-6-yl)(methyl) carbamate] | < 1000 nM | 1000 to 10000 nM | > 90%
14 | c1cn2cc(N3CCOCC3)ccc2n1 [Compound 32] | 1000 to 10000 nM | 1000 to 10000 nM | > 90%
15 | FC(F)(F)c1ccc2ncc(-c3ccccc3)n2c1 [Compound 25] | 1000 to 10000 nM | 1000 to 10000 nM | > 90%
16 | COCCOCC(=O)Nc1cccc(-c2cnc3ccc(NC(=O)C(C)(C)C)cn23)c1 [Compound 130] | < 1000 nM | 1000 to 10000 nM | > 90%
17 | CNc1ccc2ncc(-c3ccccc3)n2n1 [Compound 20] | < 1000 nM | 1000 to 10000 nM | 50 to 89%
18 | COC(=O)c1csc(-c2cnc3ccc(NC(=O)OC(C)(C)C)cn23)c1 [Compound 124, methyl 5-(6-((tert-butoxycarbonyl)amino)imidazo[1,2-a]pyridin-3-yl)thiophene-3-carboxylate] | 1000 to 10000 nM | – | > 90%
19 | O=C(Nc1cccc(-c2cnc3ccc(N4CCOCC4)cn23)c1)C1CCOCC1 [Compound 57] | < 1000 nM | – | > 90%
20 | CC(C)(C)OC(=O)Nc1ccc2ncc(-c3cccc(N)c3)n2c1 [Compound 46] | 1000 to 10000 nM | – | > 90%
21 | Brc1cnc2ccc(N3CCOCC3)cn12 [Compound 33] | 1000 to 10000 nM | 1000 to 10000 nM | > 90%
22 | COCCOCC(=O)Nc1cccc(-c2cnc3ccc(NC(=O)OC(C)(C)C)cn23)c1 [Compound 58, tert-butyl (3-(3-(2-(2-methoxyethoxy)acetamido)phenyl)imidazo[1,2-a]pyridin-6-yl)carbamate] | < 1000 nM | – | 50 to 89%
23 | CN(C(=O)OC(C)(C)C)c1ccc2ncc(-c3cccc(NC(=O)C4CCOCC4)c3)n2c1 [Compound 49] | 1000 to 10000 nM | < 1000 nM | > 90%
